Laboratory results published in patent publication US20230181602A1, “TREATMENT OF NON-ALCOHOLIC STEATOHEPATITIS (NASH)” (DURECT CORPORATION, priority 2020, published 2023).
Marks after values point to notes of the source that are not given here.

Key:
[1] = test system: NASH patients with stage 1-3 fibrosis; assay: Phase 1b study in NASH patients, 4-week daily oral dosing: pharmacodynamic signals; format: in vivo, human; settings: for Mean Non-HDL to Baseline / Mean TG to Baseline / Median Non-HDL to Baseline / Median TG to Baseline: day 28 after dosing
Procedure: (§1) A total of 63 patients completed the study with 21 patients per dose group (completion of MRI-PDFF measurement). 25HC3 S sodium was orally administered daily at 50 mg, 150 mg, or 600 mg (300 mg BID). […] Subjects provided written informed consent to participate in the study • 2. Males or females subjects 18 years or older, at the time of signing informed consent • 3. BMI 20-45 kg/m^2 • 4. […] Value of Fibroscan® ≥7 kPa • OR • b. MRE ≥2.75 kPa • *Clinical diagnosis of NASH was defined in this clinical trial as the existence of one or more of the following risk factors for NASH, namely: • a. Type 2 diabetes or elevated fasting blood sugar • b. Abdominal obesity • c. Elevated lipid levels, especially elevated levels of serum triglycerides • d. Hypertension, or • e. Low levels of HDL cholesterol • 5. For serum transaminases, ALT concentration for all patients at the time of screening was >1 and <5 times upper limit of normal (ULN) of the central lab in the absence of another cause of liver disease. If a patient had lab records in the past 6 months, ALT concentrations were <20 U/L female and <30 U/L male. AST concentration for all patients at the time of screening was <5× ULN • 6. […] Platelet counts ≥120,000/mm^3 • 8. Female subjects were eligible for the study if they met the following criteria: • Are not pregnant or nursing • Women of child-bearing potential (defined as females who are not surgically sterile or who are not over the age of 52 and amenorrheic for at least 12 months) must utilize appropriate birth control throughout the study duration. Acceptable methods that may be used are abstinence, birth control pills (“The Pill”) or patch, diaphragm, IUD (coil), vaginal ring, condom, surgical sterilization or progestin implant or injection, or sexual activity limited to a sterile (e.g., vasectomized) male partner • 9. Male participants agreed to consistently and correctly use a condom in combination with one of the above methods of birth control from enrollment to 30 days after the last dose of study medication • 10. Participants were able to comply with dosing and able to complete the study schedule of assessments

[2] = test system: NASH patients with stage 1-3 fibrosis; assay: Phase 1b study in NASH patients: safety; format: in vivo, human; settings: 4 weeks oral
Procedure: A total of 63 patients completed the study with 21 patients per dose group (completion of MRI-PDFF measurement). 25HC3 S sodium was orally administered daily at 50 mg, 150 mg, or 600 mg (300 mg BID). […] Subjects provided written informed consent to participate in the study • 2. Males or females subjects 18 years or older, at the time of signing informed consent • 3. BMI 20-45 kg/m^2 • 4. […] Value of Fibroscan® ≥7 kPa • OR • b. MRE ≥2.75 kPa • *Clinical diagnosis of NASH was defined in this clinical trial as the existence of one or more of the following risk factors for NASH, namely: • a. Type 2 diabetes or elevated fasting blood sugar • b. Abdominal obesity • c. Elevated lipid levels, especially elevated levels of serum triglycerides • d. Hypertension, or • e. Low levels of HDL cholesterol • 5. For serum transaminases, ALT concentration for all patients at the time of screening was >1 and <5 times upper limit of normal (ULN) of the central lab in the absence of another cause of liver disease. If a patient had lab records in the past 6 months, ALT concentrations were <20 U/L female and <30 U/L male. AST concentration for all patients at the time of screening was <5× ULN • 6. […] Platelet counts ≥120,000/mm^3 • 8. […]

[3] = Phase 1b study in NASH patients: pharmacokinetics; format: in vivo, human; settings: for CL/F: NASH patients, mean
Procedure: as §1
The pharmacokinetics of administered 25HC3 S was determined.

NASH patients = settings: between 50 mg and 200 mg oral dose levels; cited from earlier work
[4] = Metabolite profiling of plasma, urine and feces after intravenous dose in rats; format: in vivo, Sprague Dawley rats; settings: intravenous 10 mg/kg, up to 1 hour postdose
Procedure: Nine male Sprague Dawley rats (Group 1) were designated for the pharmacokinetic phase, 3 male Sprague Dawley rats (Group 2) for the excretion mass balance phase, and 7 male Sprague Dawley rats (Group 3) and 9 male Long Evans rats (Group 4) for the tissue distribution phase. All animals received a single intravenous dose of [^14C]-25HC3S at 10 mg/kg and a target radioactivity of 225 μCi/kg. Blood samples were collected from all Group 1 animals at approximately 0.083, 0.25, 0.5, 1, 2, 4, 8, 12, 24, 48, and 72 hours post-dose. Urine and feces were collected from all Group 2 animals periodically through 168 hours post-dose. […] Following blood collection, animals were euthanized by CO2 inhalation and carcasses frozen in a dry ice/hexane bath for processing by quantitative whole body autoradiography. Whole blood, plasma, urine, feces, cage rinse, and cage wash were analyzed for total radioactivity by liquid scintillation counting.
Plasma pools were made from Group 1 rats at the 0.083, 0.25, 0.5, and 1-hour collection time points.
Urine pools were prepared for Group 2 at 0 to 6 and 6 to 12 hours postdose. The largest component present was attributed to the parent 25HC3 S representing about 78% to 93% of the radioactivity. […]

[5] = Single dose safety and pharmacokinetic study in subjects with NASH and control healthy subjects; format: in vivo, human
Procedure: The present Example was a randomized, dose ranging, single dose safety and pharmacokinetic study of 25HC3S administered to subjects with NASH and control healthy subjects. […] For each cohort, 10 subjects with NASH were enrolled which were further classified into cirrhotic and non-cirrhotic. Each subject received only one dose of study treatment. The second cohort was dosed after a review of safety and tolerability data from Cohort 1.

[6] = 50 mg QD, 4 weeks oral, patients with ≥10% reduction in MRI-PDFF, Day 28 vs baseline
[7] = 50 mg QD, 4 weeks oral, patients with ≥10% reduction in MRI-PDFF, Day 28 vs baseline, listed as 25HC3 S
[8] = 300 mg BID, 4 weeks oral, patients with ≥10% reduction in MRI-PDFF, Day 28 vs baseline
[9] = 300 mg BID, 4 weeks oral, patients with ≥10% reduction in MRI-PDFF, Day 28 vs baseline, listed as 25HC3 S
[10] = all on a statin except one outlier (n = 19)
[11] = all patients on a statin (n = 20)

For `C[C@H](CCCC(C)(C)O)[C@H]1CC[C@H]2[C@@H]3CC=C4C[C@@H](OS(=O)(=O)O)CC[C@]4(C)[C@H]3CC[C@]12C` [25HC3S, 5-cholesten-3,25-diol, 3-sulfate], the “Non-HDL-C, median change” value ([1]; 50 mg QD, 4 weeks oral, all patients, Day 28 vs baseline) was −8%, the “APRI score, median change” value [1, 6] was −27%*** and the “AST, median change” value [1, 6] was −24%**. For the same molecule, the “FIB-4 score, median change” value [1, 6] was −19%**, the “GGT, median change” value [1, 6] was −13%*** and the “APRI score, median change” value [1, 7] was −27%. For the same molecule, the “AST, median change” value [1, 7] was −24%, the “FIB-4 score, median change” value [1, 7] was −19% and the “GGT, median change” value [1, 7] was −13%. The “GGT, median change” value ([1]; 150 mg QD, 4 weeks oral, all patients, Day 28 vs baseline) was −1%, the “APRI score, median change” value [1, 8] was −36%*** and the “AST, median change” value [1, 8] was −39%***. The “FIB-4 score, median change” value [1, 8] was −21%***, the “APRI score, median change” value [1, 9] was −36% and the “AST, median change” value [1, 9] was −39%. For the same molecule, the “FIB-4 score, median change” value [1, 9] was −21%, the “Mean Non-HDL to Baseline” value [1, 10] was −11% and the “Mean TG to Baseline” value [1, 10] was −10%. The “Median Non-HDL to Baseline” value [1, 10] was −10%, the “Median TG to Baseline” value [1, 10] was −9% and the “Mean Non-HDL to Baseline” value [1, 11] was −9%. For the same molecule, the “Mean TG to Baseline” value [1, 11] was −2%, the “Median Non-HDL to Baseline” value [1, 11] was −9% and the “Median TG to Baseline” value [1, 11] was −6%. For the same molecule, the “enzyme levels (e.g., ALT, AST, GGT)” value ([1]; high dose (300 mg BID)) was “improved enzyme levels”, the “patients who showed ≥10% liver fat reduction from baseline as measured by MRI-PDFF” value ([1]; in each dose group (50 mg, 150 mg, 600 mg daily), after 4-week dosing) was 43% and the “serum triglycerides, median reduction from baseline” value ([1]; patients with elevated baseline triglycerides (≥200 mg/dL; n=16) across all dose groups, day 28) was −24%. For the same molecule, the “reduction in serum triglycerides” value ([1]; patients with elevated baseline triglycerides (≥200 mg/dL; n=16) across all dose groups, day 28 from baseline) was 24%, the tolerability ([2]; all three doses (50 mg, 150 mg, 600 mg daily)) was “well tolerated” and the “drug related serious adverse events” value ([2]; all three doses) was “no drug related serious adverse events observed”. For the same molecule, the CL/F ([3]; 50 mg QD oral) was 150.6 L/h, the “dose dependence of PK parameters” value ([3]; 50 mg, 150 mg, 600 mg daily) was “dose dependent” and the CL/F ([3]; 150 mg QD oral) was 176.6 L/h. For the same molecule, the CL/F ([3]; 300 mg BID oral) was 166.2 L/h, the “PK parameters after repeat dosing versus single dose” value ([3]; 4-week daily oral dosing) was “comparable to those after a single dose” and the “dose-dependent changes of biological responses” value (NASH patients) was “no dose-dependent changes of biological responses”. The “share of the exposure (AUC) to related radioactivity in plasma” value [4] was “approximately 54%”, the “difference between healthy and NASH subjects in pharmacokinetics (Cmax and AUC)” value ([5]; 50 mg and 200 mg) was “no clear difference” and the “increase of AUC0-last, AUCinf and Cmax with increasing dose” value ([5]; 50 mg to 200 mg) was “less than proportional”. The “geometric mean AUC0-12 and AUC0-last, NASH versus healthy subjects” value ([5]; Cohort 1 (50 mg)) was “similar”, the “AUC0-inf, higher in NASH subjects than healthy” value ([5]; Cohort 2 (200 mg)) was “approximately 20%” and the “increase of geometric mean Cmax in NASH subjects over healthy subjects” value ([5]; Cohorts 1 and 2) was 18-24%. For the same molecule, the “increase in both Cmax and AUC parameters for a four-fold increase in dose” value ([5]; NASH subjects, 50 mg to 200 mg) was “three-fold”, the “increase in mean Cmax for a four-fold increase in dose” value ([5]; healthy subjects, 50 mg to 200 mg) was “three-fold” and the “Mean % AUCexp” value ([5]; human, in vivo) was “low”.
